Results taken from patent US20240199688A1, “METHODS FOR REDUCING LIPASE ACTIVITY” (Regeneron Pharmaceuticals, Inc., priority 2022, published 2024).

System: polysorbate degrading activity
Assay: Reduction of polysorbate degrading activity by lipase inhibitors
Assay type: biochemical, CHO
[1] = 0.001 mM lipase inhibitor, relative to control without inhibitor

Row | Molecule | Percent reduction in polysorbate 20 degradation [1] [%] | Percent reduction in polysorbate 20 degradation (0.01 mM lipase inhibitor) | Percent reduction in polysorbate 20 degradation (0.1 mM lipase inhibitor) [%]
1 | CCCCOc1ccccc1B(O)O [2-Butoxyphenyl boronic acid, 2-butoxyphenylboronic acid] | 0 | 28% | 0
2 | CCCCCCCCCCC[C@@H](C[C@@H]1OC(=O)[C@H]1CCCCCC)OC(=O)[C@H](CC(C)C)NC=O [Orlistat, orlistat] | 0 | 27.8%^ | 67
3 | O=C(Nc1cccc(-c2ccccc2)c1)OC1CCCCC1 [URB602, [1-1′-biphenyl]-3-t1-carbamicacid cyclohexyl ester] | 0 | 20% | 0
4 | diethylumbelliferyl phosphate | 48 | 100% | >95
